Test results taken from article PMC8001783, “New Lignanamides with Antioxidant and Anti-Inflammatory Activities Screened Out and Identified from Warburgia ugandensis Combining Affinity Ultrafiltration LC-MS with SOD and XOD Enzymes” (Antioxidants, 2021).
Where “and” joins values, the source holds several entries; their conditions need not be identical. Equal values may be shown once. Marks after values point to notes of the source that are not given here.

How the values were obtained:
[1] = DPPH free radical scavenging assay; settings: pure compounds; 30 min, 517 nm, n = 3
Procedure: The DPPH free radical scavenging activities of extracts and pure compounds from stem barks of W. ugandensis were tested according to previous studies with slight modifications. Firstly, 10 µL solutions of the samples, appropriately diluted with MeOH, were homogeneously mixed with 190 µL solution of DPPH (0.1 mM in MeOH) in a 96-well plate. Secondly, the mixtures were gently shaken and put at room temperature for 30 min in the darkness. Finally, the absorbance was recorded at 517 nm with multifunctional microplate reader. Trolox was used as positive control, and MeOH was used as blank control. Each of the samples and controls were tested in triplicate (n = 3). The antioxidant activities of DPPH were expressed as IC50 (concentration of samples caused 50% inhibition) and TEAC values. The TEAC values were calculated from the standard curve of Trolox and expressed as millimoles of Trolox equivalents per gram of sample (mmol TE/g). The inhibition of the DPPH radical was calculated according to the following formula:DPPH scavenging activity (%) = (1 − absorbance of sample/absorbance of blank control) × 100,(1) where DPPH scavenging activities (%) were plotted against the concentration of samples to obtain the IC50.

[2] = ABTS free radical scavenging assay; settings: pure compounds; 30 min, 734 nm, n = 3
Procedure: The ABTS free radical scavenging activities of extracts and pure compounds from stem barks of W. ugandensis were tested according to previous studies with slight modifications. ABTS^+ solution was prepared by mixing equal volumes of potassium persulfate (4.9 mM in H2O) and ABTS (7.0 mM in H2O) and then incubated for 12 h in the darkness. The prepared ABTS^+ solution was diluted with MeOH to ensure an absorbance value about 0.700 ± 0.005 at 734 nm. Firstly, 10 µL of appropriately diluted solution of samples was added to the 190 µL ABTS^+ solution in 96-well plate. Secondly, the mixtures were gently shaken and put at room temperature for 30 min in the darkness. Finally, the absorbance was recorded at 734 nm with multifunctional microplate reader. Trolox was used as positive control, and MeOH was used as blank control. Samples and controls were tested in triplicate (n = 3). The antioxidant activities of ABTS were expressed as IC50 and TEAC values. The inhibition of the ABTS radicals was calculated according to the following formula:ABTS scavenging activity (%) = (1 − absorbance of sample/absorbance of blank control) × 100,(2) where ABTS scavenging activities (%) were plotted against the concentration of samples to acquire the IC50.

[3] = Ferric reducing antioxidant power (FRAP) assay; settings: for FRAP value: 37 °C, 10 min, 593 nm, n = 3
Procedure: The ferric reducing antioxidant power assays on different extracts and pure compounds of stem barks from W. ugandensis were tested according to previous studies with slight modifications. Firstly, freshly prepared FRAP reagent (Fe^3+-TPTZ solution) was composed of FeCl3∙6H2O (20 mM in H2O), TPTZ (10 mM in 40 mM HCl), and acetate buffer (300 mM, pH = 3.6) at a ratio of 1:1:10 (v/v/v), then incubated at 37 °C after preparation, and used within 1–2 h. Secondly, 10 µL of appropriately diluted solution of samples was added to the 190 µL freshly prepared FRAP reagent in 96-well plate. Thirdly, the mixtures were gently shaken and put at 37 °C for 10 min. Finally, the absorbance was recorded at 593 nm with multifunctional microplate reader. Trolox was used as a positive control, and MeOH was used as blank control. Each of the samples and controls were tested in triplicate (n = 3). The antioxidant activities of FRAP were expressed as FRAP values and TEAC values. The FRAP values were calculated and expressed as millimoles of Fe^2+ equivalents per gram of sample (mmol Fe^2+/g) based on a calibration curve plotted using FeSO4∙7H2O as standard at a concentration ranging from 0.0185 to 1.5 mM.

[4] = test system: superoxide dismutase (SOD); assay: Affinity ultrafiltration LC-MS/MS with SOD (relative binding affinity); design: key: -: No binding affinity; settings: peaks of WUE-A4, SOD 2 U, 37 °C 1 h, n = 3
Procedure: The experimental conditions were proposed according to previous relevant studies. Briefly, the optimized experiment was composed of three steps. Incubation was the first step, where 100 μL WUE-A4 (10.0 mg/mL), 10 µL SOD (2 U) or XOD (2 U), and 90 µL Tris-HCl (pH = 7.8) were mixed well in 1.5 mL EP tubes, and then incubated at 37 °C in the dark for 1 h. Meanwhile, the incubation operations of inactivated enzymes (inactivated enzymes were obtained by heating enzymes in a 99 °C water bath for 10 min) were the same as the active enzymes. Adsorption was the second step, where the incubated solutions were transferred to ultrafiltration tubes with 30 KDa (for SOD) or 10 KDa (for XOD) ultrafiltration membranes and then centrifuged at 10,000 rpm for 10 min at 25 °C. Simultaneously, components which had no binding affinity to enzymes were washed out. Immediately, 300 µL of Tris-HCl solution (pH = 7.8) was added to the ultrafiltration tubes and centrifuged at 10,000 rpm for 5 min at 25 °C to remove the potential unbound components. Desorption was the third step, where 300 µL of 90% (v/v) MeOH-H2O was added and incubated for 10 min at room temperature, and the mixed solutions were centrifuged at 10,000 rpm for another 10 min at 25 °C. After that, the desorption process was repeated two times to release those components with specific bindings to SOD or XOD from the enzyme-ligand complexes. Finally, those ultrafiltrates were dried and reconstituted in 50 µL MeOH for the HPLC-UV/ESI-MS/MS analysis.
HPLC-UV/ESI-MS/MS was carried out to characterize the components in WUE-A4 before and after ultrafiltration by using a Thermo Accela 600 series HPLC connected with a TSQ Quantum Access MAX mass spectrometer (Thermo Fisher Scientific, San Jose, CA, USA). A Waters Symmetry RP-C18 column (4.6 × 250 mm, 5 µm) was used to perform chromatographic analysis at 30 °C, and the mobile phase consisted of H2O with 0.1% formic acid (A) and ACN (B). The optimized HPLC elution procedures were as follows: 0–15 min, 17% B; 15–40 min, 17–30% B, 40–42 min: 30–56% B. The flow rate was 0.8 mL/min, the injection volume was 10 µL, and the HPLC-UV chromatograms were detected at a wavelength of 254 nm. The negative ion modes were applied to obtained ESI-MS/MS data. Moreover, the parameters of instrument were set as follows: the vaporizer temperature was 350 °C, the capillary temperature was 250 °C, the spray voltage was 3000 V, the cone voltage energy was 40 V, the collision energy was 10 V, the sheath gas pressure was 40 psi, the aux gas pressure was 10 psi, the drying gas flow rate was 6.0 L/min, and the mass range was set from 50 to 1100 (m/z) in the full-scan mode. Finally, the Thermo Xcalibur ChemStation (Thermo Fisher Scientific) was used for data acquisition and analysis.
For further evaluation of the affinity binding strength between the potential ligands and the target enzymes, the relative binding affinity (RBA) was employed to compare the variation of the correlated peak areas in the UF-HPLC-UV chromatograms before and after activation. The RBA formula is expressed as RBA = Aactive/Ainactivated, where the Aactive and Ainactivated represent the peak areas obtained from the WUE-A4 samples with activated and inactivated SOD or XOD, respectively.

Molecule | IC50 [1] | IC50 [2] | FRAP value [3] | UF-RBA SOD (relative binding affinity = Aactive/Ainactivated) [4] | UF-RBA SOD (relative binding affinity = Aactive/Ainactivated) ([4]; listed as peak 1) | UF-RBA SOD (relative binding affinity = Aactive/Ainactivated) ([4]; listed as peak 11) | total ferric-reducing antioxidant power (FRAP) [3] | UF-RBA SOD (relative binding affinity = Aactive/Ainactivated) ([4]; listed as peak 14)
C[C@@H]1O[C@@H](O[C@@H]2[C@@H](O)[C@H](O)[C@@H](CO)O[C@H]2c2cc(-c3cc(=O)c4c(O)cc(O)cc4o3)cc(O)c2O)[C@H](O)[C@H](O)[C@H]1O [compound 1, 2-[3-[2-O-(6-deoxy-α-L-mannopyranosyl)-β-D-glucopyranosyl]-4,5-dihydroxyphenyl]-5,7-dihydroxy-4H-1-benzopyran-4-one] | 25.8 ± 1.4 µM | 62.5 ± 4.2 µM | 5.4 ± 0.7 ^b mmol Fe^2+/g | 1.9 ± 0.1 ^a,b,c | 1.93 |  |  | 
COc1cc(C2c3c(cc(OC)c(O)c3O)C=C(C(=O)NCCc3ccc(O)cc3)C2C(=O)NCCc2ccc(O)cc2)cc(O)c1O (stereo not drawn) [compound 13] | 115 ± 20.8 µM | 69.8 ± 6.3 µM | 1.3 ± 0.2 ^c mmol Fe^2+/g | 1.3 ± 0.1 ^e |  |  |  | 
O=C(/C=C/c1ccc(O)c(O)c1)NCCc1ccc(O)cc1 [compound 7, N-trans-caffeoyltyramine] | 636 ± 290 µM | 463 ± 157 µM | 1.9 ± 0.1 ^c mmol Fe^2+/g | 1.1 ± 0.3 ^e |  |  |  | 
1-(3,4-dihydroxy-5-methoxyphenyl)-1,2-dihydroxy-7,8-dihydroxy-N-[(3,4-dihydroxyphenyl)-ethyl]-N′-[(4-hydroxyphenyl)-ethyl]-6-methoxynaphthalene-2,3-dicarboxamide [compound 11] | 59.1 ± 4.1 µM | 80 ± 10.3 µM | 2.2 ± 0.1 ^c mmol Fe^2+/g | - |  | extremely low or no binding affinities |  | 
COc1cc(C2c3c(cc(O)c(O)c3OC)C=C(C(=O)NCCc3ccc(O)cc3)C2C(=O)NCCc2ccc(O)cc2)cc(O)c1O (stereo not drawn) [compound 14] | 6.41 µM and 6.4 µM | 5.38 µM and 5.4 µM | 17.488 ± 1.625 mmol Fe^2+/g and 17.5 ± 1.6 ^a mmol Fe^2+/g | 1.5 ± 0.1 ^c,d,e |  |  | 17.488 ± 1.625 mmol Fe^2+/g | 1.51
